Laboratory results taken from patent publication US20210308028A1, “Compositions and Methods for Maintaining and Protecting Tissue Integrity and Barrier Function” (Colgate-Palmolive Company, priority 2020, published 2021).

Experiments:
[1] = tested on: zonula occludens-1 and occludin in B11 gingival keratinocytes; experiment: Immunofluorescent staining of zonula occludens-1 and occludin; type: cell-based, human; conditions: no challenge; Example 3, FIGS. 8, 11, 14
Procedure: Gingival keratinocytes treated as described above for 12 h were immunostained for zonula occludens-1 and occludin, two tight junction proteins. Briefly, the cells were fixed in 50 mM phosphate-buffered saline (pH 7.2) (PBS) containing 4% paraformaldhehyde for 20 min, permeabilized with 0.1% Triton X-100 for 10 min, and blocked in 3% non-fat milk in 20 mM Tris-HCl (pH 8), 150 mM NaCl, and 0.5% Tween 20 for 40 min. […] After washing with PBS, the cells were then treated with ProLong® Diamond antifade (Life Technologies). The slides were sealed with nail polish and were kept in the dark at 4° C. The localization of tight junction proteins in B11 cells was visualized using an Olympus FSX100 fluorescence microscope and FSX-BSW imaging software (Olympus, Tokyo, Japan). Immunofluorescent staining of tight junction proteins is a qualitative assay.
The localization of the tight junction proteins in B11 cells was visualized using an Olympus FSX100 fluorescence microscope and FSX-BSW imaging software (Olympus, Tokyo, Japan).

[2] = tested on: B11 gingival keratinocytes treated with TNF-α; experiment: TER with TNF-α challenge; type: cell-based, human; conditions: Example 5, FIGS. 24, 27, 29, 30
Procedure: (§1) Tight junction integrity was assessed by determining the trans-epithelial electrical resistance (TER). B11 gingival keratinocytes were seeded onto Costar™ Transwell™ clear polyester membrane inserts (6.5-mm diameter; 0.4-μm pore size; Corning Co., Cambridge, Mass., USA) at 3×10^5 cells per insert. The basolateral and apical compartments were filled with 0.6 mL and 0.1 mL of complete K-SFM, respectively. Following a 72-h incubation, the conditioned medium was replaced with antibiotic-free K-SFM, and the cells were incubated for a further 16 h. The TER values were measured using an Ohm/voltmeter (EVOM2; World Precision Instruments, Sarasota, Fla., USA) at 0, 4, 8, 24, 48, and 72 h. Resistance values were calculated in Ohms (Ω)/cm 2 by multiplying the resistance values by the filter surface area. Results were expressed as percentage of the basal control values measured at time 0 h (100% values) for each condition.
(§2) Assays exposed cells to either TNFα only or TNFα+test composition. TNFα is known to cause tissue damage. A stock solution of recombinant TNF-α is prepared in sterile distilled water at 100 μg/ml. Thereafter, dilutions are made in keratinocyte culture medium. First dilution is 1/1000 to obtain 100 ng/ml. TNF-α and the test compounds are added simultaneously.
Keratinocyte barrier integrity was determined by monitoring transepithelial electrical resistance (TER). Briefly, keratinocytes (3×10^5 cells per insert; 0.1 ml) were seeded in the apical compartment of Costar™ Transwell™ clear polyester membrane inserts (6.5 mm in diameter, 0.4 μm pore size; Corning Co., Cambridge, Mass., USA), while the basolateral compartment was filled with 0.6 ml of culture medium. After 72-h of incubation, the conditioned culture medium was replaced with fresh antibiotic-free K-SFM, and the cells were further incubated for 16 h prior treating the cells. Recombinant human TNF-α (100 ng/ml; AnaSpec, Fremont, USA) and the formulations (final dilutions of 1/500, 1/1000, and 1/2000 (v/v for the aqueous solution; w/v for the dentifrice) under investigation were added to the apical compartment. The TER values were monitored using an ohm/voltmeter (EVOM^2; World Precision Instruments, Sarasota, Fla., USA) after 0, 6, 24, and 48 h of incubation. The TER values in Ohms (Ω)/cm^2 were determined by multiplying the resistance values by the surface area of the membrane filter. Results are expressed as the percentage of the basal control value measured at time 0-h (100% value).

[3] = tested on: B11 gingival keratinocytes challenged with P. gingivalis; type: cell-based, human; conditions: P. gingivalis MOI=10^4; Example 4, FIGS. 15, 18, 21
Procedure: as §1

[4] = tested on: B11 immortalized human gingival keratinocyte cell line; experiment: Paracellular permeability to FITC-dextran (FD-4); type: cell-based; conditions: no challenge; over 48 h; FIGS. 7, 10, 13
Procedure: (§3) The ability of test composition samples to enhance epithelial barrier integrity was assessed by monitoring the paracellular transport of FITC-conjugated 4.4-kDa dextran (FD-4; Sigma-Aldrich Canada Ltd.) across the keratinocyte layer. Briefly, B11 cells were cultured on Transwell filters, and FD-4 ([…] in culture medium) was added in the apical compartment in the presence of the test composition under investigation. Fluorescence in the basolateral compartment was measured at 0, 4, 8, 24, and 48 h using a Synergy 2 microplate reader (BioTek Instrument, Winooski, Vt., USA).
(§4) Briefly, B11 cells were cultured on Transwell™ filters, and FD-4 (1 mg/mL in culture medium) was added to the apical compartment in the presence of the test compounds. The presence of FD-4 in the basolateral compartment was determined at 0, 2, 6, 24, and 48 h by measuring the fluorescence (RUF; excitation wavelength 495 nm; emission wavelength 525 nm) using a Synergy 2 microplate reader.

[5] = tested on: B11 gingival keratinocytes challenged with P. gingivalis; experiment: Paracellular permeability to FITC-dextran with P. gingivalis challenge; type: cell-based, human; conditions: P. gingivalis MOI=10^4; over 48 h; FIGS. 16, 19, 22
Procedure: as §3, §4

[6] = tested on: hemolytic activity of P. gingivalis; experiment: Hemolytic assay with sheep red blood cells; type: cell-based, Porphyromonas gingivalis; conditions: Example 6, FIGS. 37, 40, 43; red blood cells from sheep
Procedure: A hemolytic assay is performed as follows. Fresh sheep red blood cells (Nutri-Bact, Terrebonne, QC, Canada) were harvested from heparinized whole blood by centrifugation (600×g for 5 min), washed three times in phosphate-buffered saline (PBS; pH 7.0), and suspended in PBS to a concentration of 2% (v/v). Equal volumes (1 mL) of red blood cells, P. gingivalis cells (OD660=1.0 in PBS), and two-fold serial dilutions of the Test composition were mixed together. PBS replaced the bacteria in the negative control. Following an incubation at 37° C. for 4 h, the mixtures were incubated at 4° C. for 1 h and were then centrifuged (10 000×g for 5 min) prior to recording the absorbance of the supernatants at 540 nm (A540). 1 ml P. gingivalis+1 ml of red blood cells+1 ml of test compounds used in the hemolysis assay are incubated at 37° C. for to 4 h. All constituents are added at the same time. […]
Fresh sheep red blood cells (Nutri-B act, Terrebonne, QC, Canada) were harvested from heparinized whole blood by centrifugation (600×g for 5 min), washed three times in phosphate-buffered saline (PBS; pH 7.0), and suspended in PBS to a concentration of 2% (v/v). […] Following an incubation at 37° C. for 4 h, the mixtures were incubated at 4° C. for 1 h and were then centrifuged (10 000×g for 5 min) prior to recording the absorbance of the supernatants at 540 nm (A540).

[7] = tested on: B11 gingival keratinocytes treated with TNF-α; experiment: FITC-dextran paracellular transport with TNF-α challenge; type: cell-based, human; conditions: Example 5, FIGS. 25, 28, 31, 32; S1: the two higher percentages
Procedure: as §3, §2
Gingival keratinocytes were cultured in the apical chamber of Transwell™ inserts as described above. Immediately after adding fluorescein isothiocyanate-conjugated dextran of 4.4 kDa (FD-4; 1 mg/ml in culture medium) to the apical compartment, the formulations under investigation were added in presence of recombinant TNF-α (100 ng/ml). Fluorescence in the basolateral compartment was recorded after 0, 2, 6, 24, and 48 h of incubation using a Synergy 2 microplate reader (BioTek Instruments; Winooski, Vt., USA).

Row | SMILES | immunofluorescence of tight junction proteins (Occludin, Zonula Occludens-1) [1] | TER with TNFα challenge [2] | TER with P. gingivalis challenge [3] | paracellular permeability to FITC-dextran [4] | paracellular permeability to FITC-dextran with P. gingivalis [5] | inhibition of hemolytic activity of P. gingivalis [6] | TNFα-induced paracellular permeability to FITC-dextran [7]
1 | [O]=[Zn] [zinc oxide] | enhances barrier integrity | prevented tissue from the TNFα induced TER decrease | protects tissue integrity from damage by P. gingivalis | decreased with the increase in concentration of zinc oxide | decreased with the increase in concentration of zinc oxide | inhibited P. gingivalis hemolysis | protects oral tissue integrity from the deleterious effects caused by the presence of TNFα
2 | O=C([O-])CC(O)(CC(=O)[O-])C(=O)[O-].O=C([O-])CC(O)(CC(=O)[O-])C(=O)[O-].[Zn+2].[Zn+2].[Zn+2] [zinc citrate] | enhances barrier integrity | can prevent tissue from the TNFα induced TER decrease | protects tissue integrity from damage by P. gingivalis | decreased with the increase in concentration of zinc citrate | decreased with the increase in concentration of zinc citrate | inhibited P. gingivalis hemolysis | protects oral tissue integrity from the deleterious effects caused by the presence of TNFα
